{"source": "paper PMC8617681", "about": "(Pharmaceuticals, 2021)", "key": {"human OATP1A2": {"molecular_target": "T1, human OATP1A2 (Homo sapiens, UniProt P46721)", "T1 construct": "Werner Siegmund and Dr. Markus Keiser (University of Greifswald); host or cells: HEK293", "T1 sequence (P46721 1-670)": "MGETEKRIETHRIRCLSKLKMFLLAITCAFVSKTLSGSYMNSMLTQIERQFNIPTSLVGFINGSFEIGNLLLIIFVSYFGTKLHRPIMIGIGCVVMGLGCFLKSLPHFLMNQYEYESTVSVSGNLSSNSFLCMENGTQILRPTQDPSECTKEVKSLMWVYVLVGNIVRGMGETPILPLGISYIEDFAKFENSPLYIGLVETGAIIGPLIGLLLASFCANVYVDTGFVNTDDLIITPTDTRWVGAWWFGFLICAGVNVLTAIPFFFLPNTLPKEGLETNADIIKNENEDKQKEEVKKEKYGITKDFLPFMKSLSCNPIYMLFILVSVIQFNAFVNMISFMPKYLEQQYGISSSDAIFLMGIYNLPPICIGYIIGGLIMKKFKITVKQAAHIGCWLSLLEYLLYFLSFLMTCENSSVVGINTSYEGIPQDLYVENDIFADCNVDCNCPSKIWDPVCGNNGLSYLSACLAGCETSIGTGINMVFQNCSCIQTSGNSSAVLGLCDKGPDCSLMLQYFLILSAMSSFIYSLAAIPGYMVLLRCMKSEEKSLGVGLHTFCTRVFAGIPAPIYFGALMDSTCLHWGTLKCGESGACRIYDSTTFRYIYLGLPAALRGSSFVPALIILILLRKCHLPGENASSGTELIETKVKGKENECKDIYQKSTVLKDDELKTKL", "experiment": "Cellular uptake in OATP1A2-overexpressing HEK293 cells", "assay_type": "in vitro ADME", "conditions": "0.2 µM, 2.5 min incubation, HEK293 OATP1A2, positive control", "method": "(§1) HEK293 cells, vector-transfected or human (h)SLCO1A2, hSLCO1B1 or hSLCO1B3 cDNA-transfected were kind gifts from Prof. Werner Siegmund and Dr. Markus Keiser (University of Greifswald, Greifswald, Germany). All the HEK293 cell lines were maintained in DMEM supplemented with 10% (v/v) FBS, 1% penicillin–streptomycin mix at 37 °C in 5% (v/v) CO2 and 500 μg/mL G418. Cells were first seeded in 12-well plates [coated with 50 mg/L poly (l-lysine) and 50 mg/L poly (l-ornithine)] at a density of 1.0 × 10^5 cells/well. For the uptake study, in order to induce the expression of OATP transporters, the cell culture medium was replaced with culture medium supplemented with 5 mM sodium butyrate 24 h before performing the uptake assay.\n(§2) The uptake transport study was performed as described previously. […] The Krebs–Henseleit solution was prepared from Krebs–Henseleit-buffer modified powder and supplemented with 25 mM NaHCO3 and 2.5 mM CaCl2 adjusted to pH 6.4 with 1 M HCL. At 2.5 min, the incubation buffer was removed, and uptake was terminated by adding 1 mL of ice-cold Krebs–Henseleit buffer, followed by two times washing with 1 mL of ice-cold Krebs–Henseleit buffer. […] The cellular protein amount was determined by the Bradford method using 10 μL of the cell lysates with bovine serum albumin as a standard."}, "human OATP1B1": {"molecular_target": "T2, human OATP1B1 (Homo sapiens, UniProt Q9Y6L6)", "T2 construct": "Werner Siegmund and Dr. Markus Keiser (University of Greifswald); host or cells: HEK293", "T2 sequence (Q9Y6L6 1-691)": "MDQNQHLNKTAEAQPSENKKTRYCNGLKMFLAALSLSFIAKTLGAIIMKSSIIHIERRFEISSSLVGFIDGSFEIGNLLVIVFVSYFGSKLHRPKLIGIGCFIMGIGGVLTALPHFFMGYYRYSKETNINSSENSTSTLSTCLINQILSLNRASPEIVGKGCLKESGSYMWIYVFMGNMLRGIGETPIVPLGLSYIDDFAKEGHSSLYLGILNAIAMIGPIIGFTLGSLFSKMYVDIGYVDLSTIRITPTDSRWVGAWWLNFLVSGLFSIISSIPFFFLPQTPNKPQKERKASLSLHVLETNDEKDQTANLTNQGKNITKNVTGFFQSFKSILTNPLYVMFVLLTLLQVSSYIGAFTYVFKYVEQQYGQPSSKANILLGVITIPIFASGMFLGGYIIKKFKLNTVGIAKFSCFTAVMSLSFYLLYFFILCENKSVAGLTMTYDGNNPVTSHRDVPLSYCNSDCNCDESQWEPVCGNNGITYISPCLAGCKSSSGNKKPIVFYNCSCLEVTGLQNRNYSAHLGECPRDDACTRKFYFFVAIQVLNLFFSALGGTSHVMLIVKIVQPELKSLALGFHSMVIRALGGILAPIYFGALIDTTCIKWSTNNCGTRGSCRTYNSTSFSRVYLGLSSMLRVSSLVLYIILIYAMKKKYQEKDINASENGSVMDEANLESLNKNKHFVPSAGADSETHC", "experiment": "Cellular uptake in OATP1B1-overexpressing HEK293 cells", "assay_type": "in vitro ADME", "conditions": "0.2 µM, 2.5 min incubation, HEK293 OATP1B1, positive control", "method": "as §1, §2"}, "human OATP1B3": {"molecular_target": "T3, human OATP1B3 (Homo sapiens, UniProt Q9NPD5)", "T3 construct": "Werner Siegmund and Dr. Markus Keiser (University of Greifswald); host or cells: HEK293", "T3 sequence (Q9NPD5 1-702)": "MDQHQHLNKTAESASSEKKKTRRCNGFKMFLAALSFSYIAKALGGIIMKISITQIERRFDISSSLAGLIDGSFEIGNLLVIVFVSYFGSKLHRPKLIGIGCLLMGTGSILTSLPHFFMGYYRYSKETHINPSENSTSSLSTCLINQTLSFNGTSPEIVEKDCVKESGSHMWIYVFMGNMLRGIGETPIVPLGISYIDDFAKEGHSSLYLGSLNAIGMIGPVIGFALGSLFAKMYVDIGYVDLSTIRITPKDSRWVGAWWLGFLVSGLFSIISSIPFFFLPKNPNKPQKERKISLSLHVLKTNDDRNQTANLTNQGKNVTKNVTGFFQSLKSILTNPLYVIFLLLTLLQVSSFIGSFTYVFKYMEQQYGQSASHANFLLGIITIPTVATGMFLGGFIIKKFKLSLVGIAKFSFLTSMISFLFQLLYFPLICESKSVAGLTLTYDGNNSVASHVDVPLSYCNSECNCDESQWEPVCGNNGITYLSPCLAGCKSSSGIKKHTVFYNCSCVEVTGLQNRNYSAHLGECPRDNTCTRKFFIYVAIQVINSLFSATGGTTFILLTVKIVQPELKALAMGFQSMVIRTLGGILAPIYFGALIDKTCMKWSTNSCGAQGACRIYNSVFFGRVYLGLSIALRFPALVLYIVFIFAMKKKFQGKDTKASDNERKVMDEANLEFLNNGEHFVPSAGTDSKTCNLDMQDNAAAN", "experiment": "Cellular uptake in OATP1B3-overexpressing HEK293 cells", "assay_type": "in vitro ADME", "conditions": "0.2 µM, 2.5 min incubation, HEK293 OATP1B3, positive control", "method": "as §1, §2"}, "[1]": {"design": "method as in PMID 30253203", "conditions": "oral brigatinib, Abcb1a/1b;Abcg2-/- mice; cited from earlier work"}, "[2]": {"conditions": "oral, mice; cited from earlier work"}}, "note": "Entries after “also recorded” stand apart in the source; their conditions may differ.", "data": [{"smiles": "CC(C)c1nc(N(C)S(C)(=O)=O)nc(-c2ccc(F)cc2)c1/C=C/[C@@H](O)C[C@@H](O)CC(=O)O", "note": "[Rosuvastatin]", "values": [{"measurement": "uptake compared to vector control cells", "setting": "human OATP1A2", "value": "efficiently taken up"}, {"measurement": "uptake compared to vector control cells", "setting": "human OATP1B1", "value": "efficiently taken up"}, {"measurement": "uptake compared to vector control cells", "setting": "human OATP1B3", "value": "efficiently taken up"}]}, {"smiles": "COc1cc(N2CCC(N3CCN(C)CC3)CC2)ccc1Nc1ncc(Cl)c(Nc2ccccc2P(C)(C)=O)n1", "note": "[brigatinib]", "values": [{"measurement": "acute toxicity", "setting": "[1]", "value": "severe and even lethal acute toxicity; also recorded: sometimes severe and lethal toxicity"}]}, {"smiles": "COc1cc2c(cc1OC)CN(CCc1ccc(NC(=O)c3cccc4c(=O)c5cccc(OC)c5[nH]c34)cc1)CC2", "note": "[elacridar]", "values": [{"measurement": "Tmax", "setting": "[2]", "value": "about 4 h"}]}]}
